Assay results reported in patent US5182265A, “Pharmacologically active peptide derivatives and pharmaceutical preparations containing them” (SPA Societa' Prodotti Antibiotici S.p.A., priority 1989, dated 1993).
Where a name gives a salt, the structure may show the parent alone. Where a SMILES comes first, the peptide text is derived from it.

Test: Water solubility of the salts (qualitative remark in the preparation)
Assay type: physicochemical
Conditions: qualitative description of the isolated salt
Description: H-Thr-Asp-D-Tyr-OH is dissolved in 5 volumes of water, and the solution is added with an equivalent amount of 1N HCl.
The solution is concentrated to small volume under vacuum and added with acetone.

| Structure (SMILES) | water solubility of the isolated powder |
| --- | --- |
| C[C@@H](O)[C@H](N)C(=O)N[C@@H](CC(=O)O)C(=O)N[C@H](Cc1ccc(O)cc1)C(=O)O [H-Thr-Asp-D-Tyr-OH hydrochloride] (HELM PEPTIDE1{T.D.[dY]}$$$$V2.0) | very water soluble |
| C[C@@H](O)[C@H](N)C(=O)N[C@@H](CC(=O)O)C(=O)N[C@@H](Cc1ccc(O)cc1)C(=O)O [H-Thr-Asp-Tyr-OH lysine salt] (H-Thr-Asp-Tyr-OH) | freely water soluble |
